Data taken from paper PMC9120478 (Nature Communications, 2022).
Substitutions are numbered along the chain they refer to. Values joined by “and” are separate entries in the source; they are usually repeats but may differ in a detail not shown here. Identical values can stand only once. Like-named read-outs stand apart in the source and are kept apart here.

How the values were obtained:
[1] = molecular target: T1, F666A mutant TRPV3 (Mus musculus, UniProt Q8K424, F666A); experiment: Fura-2 ratiometric Ca2+ uptake, inhibition of 2-APB-evoked response; type: cell-based; conditions: for F340/F380 change normalized to maximal value in the absence of osthole: F666A
T1 construct: expressed in transfected cells; host or cells: HEK 293 S GnTI- cells (baculovirus transduction)
T1 sequence (Q8K424 1-791 F666A): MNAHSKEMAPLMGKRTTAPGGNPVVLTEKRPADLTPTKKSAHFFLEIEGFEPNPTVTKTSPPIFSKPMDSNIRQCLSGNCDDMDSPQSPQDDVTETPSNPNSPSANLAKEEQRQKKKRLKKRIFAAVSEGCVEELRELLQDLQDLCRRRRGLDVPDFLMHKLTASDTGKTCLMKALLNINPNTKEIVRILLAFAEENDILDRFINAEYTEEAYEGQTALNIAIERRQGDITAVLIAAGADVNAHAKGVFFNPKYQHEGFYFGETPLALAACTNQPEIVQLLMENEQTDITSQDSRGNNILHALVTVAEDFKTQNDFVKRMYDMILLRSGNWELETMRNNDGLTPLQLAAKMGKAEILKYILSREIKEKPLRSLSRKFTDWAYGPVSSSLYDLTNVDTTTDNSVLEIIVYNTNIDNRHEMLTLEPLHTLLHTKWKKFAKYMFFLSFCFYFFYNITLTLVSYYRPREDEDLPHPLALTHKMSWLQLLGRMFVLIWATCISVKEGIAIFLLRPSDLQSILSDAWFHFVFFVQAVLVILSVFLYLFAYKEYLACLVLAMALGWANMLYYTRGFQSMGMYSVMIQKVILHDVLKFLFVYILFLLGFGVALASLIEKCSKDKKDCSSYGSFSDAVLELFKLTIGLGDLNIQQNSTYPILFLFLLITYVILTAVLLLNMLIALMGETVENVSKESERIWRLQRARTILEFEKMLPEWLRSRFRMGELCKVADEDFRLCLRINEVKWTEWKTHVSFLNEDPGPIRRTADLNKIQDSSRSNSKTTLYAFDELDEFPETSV
Description: GFP-free C-terminally strep-tagged wild-type TRPV3, TRPV3-Y564A, TRPV3-Y594A, TRPV3-F633A, TRPV3-I663W, and TRPV3-F666A were expressed in HEK 293 S GnTI^− cells as previously described[41],[42],[53]. In short, 48 h after transduction, 1-ml aliquots of cell suspension were collected by centrifugation at 550 g for 5 min using an Eppendorf 5424 centrifuge. The cells were resuspended in the pre-warmed modified HEPES-buffered saline (HBS) containing 118 mM NaCl, 4.8 mM KCl, 1 mM MgCl2, 5 mM D-glucose, and 10 mM HEPES pH 7.4 and 5 μg/ml Fura-2 AM (Thermo Fisher Scientific) and incubated for 45 min at 37 °C. The Fura-2-loaded cells were then centrifuged for 5 min at 550 g, resuspended in the pre-warmed, modified HBS and incubated again for 30 min at 37 °C in the dark. The cells were subsequently pelleted and washed twice in the modified HBS. The washed cell pellets were kept on ice in the dark before taking an aliquot for fluorescence measurements. […] We used the lower CaCl2 concentration than before[42],[28] (2.5 mM) to minimize non-specific effects, which often appeared as a drift in the Fura-2 signal at high Ca^2+ concentration, presumably due to cell death as a result of calcium overload. Fluorescence measurements were conducted using a QuantaMaster 40 spectrofluorometer (Photon Technology International) at room temperature in a quartz cuvette under constant stirring. After 60 s since the beginning, the recording was paused and 2-APB was added. After the addition of 2-APB, the recording was continued for the additional 140 s. Changes in intracellular Ca^2+ were measured by taking the ratio of fluorescence emitted at 510 nm at the excitation wavelength of 340 nm and 380 nm. […] The data were processed using Origin 9.0 (OriginLab) software.

[2] = molecular target: T2, wild-type mouse TRPV3 (Mus musculus, UniProt Q8K424); conditions: cited from earlier work; for F340/F380 change normalized to maximal value in the absence of osthole: WT, published before
T2 construct: expressed in transfected cells; host or cells: HEK 293 S GnTI- cells (baculovirus transduction)
T2 sequence (Q8K424 1-791): T1 sequence (Q8K424 1-791 F666A) with A666F

[3] = molecular target: the molecule itself; experiment: cryo-EM structure; TRPV3 reconstituted in cNW30 nanodiscs with soybean lipids; 150 mM NaCl, 20 mM Tris pH 8.0, 1 mM βME, 100 μM dyclonine plus 100 μM more before freezing; C4 symmetry, 3.16 Å
[4] = osthole Conc 1, single experiments

## COc1ccc2ccc(=O)oc2c1CC=C(C)C [osthole]
[1]; [4]
  F340/F380 change normalized to maximal value in the absence of osthole: 1.064 and 1.053 and 0.962
[1]; osthole Conc 3, single experiments
  F340/F380 change normalized to maximal value in the absence of osthole: 0.8581 and 0.9473 and 0.9415
[1]; osthole Conc 10, single experiments
  F340/F380 change normalized to maximal value in the absence of osthole: 0.7679 and 0.9394 and 0.7809
[1]; osthole Conc 30, single experiments
  F340/F380 change normalized to maximal value in the absence of osthole: 0.5836 and 0.4944 and 0.6286
[1]; osthole Conc 100, single experiments
  F340/F380 change normalized to maximal value in the absence of osthole: 0.1362 and 0.1904
[1]; HEK 293 GnTI- cells, 200 µM 2-APB after pre-incubation with inhibitor, n = 3
  IC50: 33.1 ± 3.8 µM
[1]; logistic fit, n = 3
  nHill of inhibition curve, F666A: 1.37 ± 0.19
[2]; [4]
  F340/F380 change normalized to maximal value in the absence of osthole: 0.9502 and 0.9764 and 1.106
[2]; osthole Conc 2.5, single experiments
  F340/F380 change normalized to maximal value in the absence of osthole: 0.949 and 1.067
[2]; osthole Conc 5, single experiments
  F340/F380 change normalized to maximal value in the absence of osthole: 0.9795 and 0.8169 and 0.895
[2]; osthole Conc 8, single experiments
  F340/F380 change normalized to maximal value in the absence of osthole: 0.9193 and 0.8591 and 0.9872
[2]; osthole Conc 12.5, single experiments
  F340/F380 change normalized to maximal value in the absence of osthole: 0.6517 and 0.6914 and 0.735
[2]; osthole Conc 18, single experiments
  F340/F380 change normalized to maximal value in the absence of osthole: 0.5621 and 0.5685 and 0.5403
[2]; osthole Conc 25, single experiments
  F340/F380 change normalized to maximal value in the absence of osthole: 0.4148 and 0.5672 and 0.4994
[2]; osthole Conc 50, single experiments
  F340/F380 change normalized to maximal value in the absence of osthole: 0.161 and 0.164 and 0.15 and 0.2574
[2]; n = 4, published before
  nHill of osthole inhibition curve, wild-type TRPV3: 1.84 ± 0.14
[2]; n = 4, published before, read-out: IC50, inhibition of wild-type TRPV3 by osthole
  IC50: 20.5 ± 0.5 µM

B1: Mouse TRPV3 (vanilloid-subfamily member 3 TRP channel) (natural protein)
chain: AHSKEMAPLMGKRTTAPGGNPVVLTEKRPADLTPTKKSAHFFLEIEGFEPNPTVTKTSPPIFSKPMDSNIRQCLSGNCDDMDSPQSPQDDVTETPSNPNSPSANLAKEEQRQKKKRLKKRIFAAVSEGCVEELRELLQDLQDLCRRRRGLDVPDFLMHKLTASDTGKTCLMKALLNINPNTKEIVRILLAFAEENDILDRFINAEYTEEAYEGQTALNIAIERRQGDITAVLIAAGADVNAHAKGVFFNPKYQHEGFYFGETPLALAACTNQPEIVQLLMENEQTDITSQDSRGNNILHALVTVAEDFKTQNDFVKRMYDMILLRSGNWELETMRNNDGLTPLQLAAKMGKAEILKYILSREIKEKPLRSLSRKFTDWAYGPVSSSLYDLTNVDTTTDNSVLEIIVYNTNIDNRHEMLTLEPLHTLLHTKWKKFAKYMFFLSFCFYFFYNITLTLVSYYRPREDEDLPHPLALTHKMSWLQLLGRMFVLIWATCISVKEGIAIFLLRPSDLQSILSDAWFHFVFFVQAVLVILSVFLYLFAYKEYLACLVLAMALGWANMLYYTRGFQSMGMYSVMIQKVILHDVLKFLFVYILFLLGFGVALASLIEKCSKDKKDCSSYGSFSDAVLELFKLTIGLGDLNIQQNSTYPILFLFLLITYVILTFVLLLNMLIALMGETVENVSKESERIWRLQRARTILEFEKMLPEWLRSRFRMGELCKVADEDFRLCLRINEVKWTEWKTHVSFLNEDPGPIRRTADLNKIQDSSRSNSKTTLYAFDELDEFPETSV
notes: TRPV3, mouse; model built for residues 118-756, leaving out 462-470 and 611-621
[3]
  stoichiometry N: 4
